Assay results: publication PMC7797213, “Vascular effects of serelaxin in patients with stable coronary artery disease: a randomized placebo-controlled trial” (Cardiovascular Research, 2020)

What was measured:
Format in all cases: in vivo, human
[1] = tested on: patients with stable coronary artery disease; test: Applanation tonometry-derived augmentation index (AIx); details: for AIx, absolute value: mean ± SD; for AIx, adjusted mean difference serelaxin versus placebo / AIx, change from baseline (adjusted mean): repeated measures ANCOVA
Procedure: (30 μg/kg/day) or matching placebo, using a computerized randomization system involving concealed treatment arms. The co-primary endpoints were the change from baseline in global myocardial perfusion reserve (MPR) measured by quantitative perfusion cardiac magnetic resonance (CMR) imaging and the change from baseline in augmentation index (AIx) measured by applanation tonometry. The primary endpoints of MPR and AIx were assessed at baseline and 47 h post-commencement of the infusion (Figure 1).
(§1) The applanation tonometry assessments were performed by blinded operators. Augmentation index [AIx = (augmentation pressure/pulse pressure) × 100], and carotid-femoral PWV were measured by applanation tonometry (Sphygmocor®, AtCor Medical, Australia) at a proximal (carotid artery) and a distal (femoral artery) site of the body, utilizing R-wave gated determination of the time interval between the two measurement points. An averaged carotid pressure waveform (from a 10 s recording) was converted into a corresponding central waveform using a validated transfer function (SphygmoCor®, AtCor, Australia).[27]^,[28]

[2] = tested on: patients with stable coronary artery disease; test: Applanation tonometry carotid-femoral pulse wave velocity (PWV); details: for PWV, absolute value: mean ± SD; for PWV, adjusted mean difference serelaxin versus placebo / PWV, change from baseline (adjusted mean): repeated measures ANCOVA
Procedure: Secondary endpoints included: the change from baseline in AIx and pulse wave velocity (PWV) assessed at the end of treatment, Day 30 and Day 180; aortic distensibility (assessed with CMR and PWV methods) at the end of treatment; pharmacokinetics and safety (adverse events, serious adverse events, and vital signs) of 48 h infusion of serelaxin 30 μg/kg/day. The changes in levels of circulating biomarkers of cardiorenal and vascular function during and after treatment with serelaxin were also assessed as part of the exploratory endpoints.
as §1

cystatin C = test: Plasma biomarker cystatin C; details: for Cystatin C, geo-mean (95% CI): plasma
Procedure: (§2) Biomarkers reported include: N-terminal pro-brain natriuretic peptide (NT-proBNP), high-sensitivity troponin T (hsTnT) measured to assess myocardial safety; cystatin C measured to access renal function; the biologically active form of endothelin-1 (1–21), measured to assess vascular function. Venous blood samples were collected at 0 (pre-dose), 24, 48, and 54 h, Day 30, and Day 180. NT-proBNP, hsTnT, and cystatin C samples were collected in EDTA tubes while endothelin-1 samples were collected in EDTA tubes containing aprotinin. Plasma was immediately frozen at −70°C pending analysis in complete patient sets. Commercial biomarker kits were as follows: hsTnT from Roche Diagnostics GmbH, Germany; cystatin C from Gentian, Moss, Norway; and active endothelin-1 […] from Biomedica Medizinprodukte, Vienna, Austria.
(§3) For the biomarker analyses, baseline was defined as the pre-dose assessment on Day 1. Raw values as well as changes from baseline were summarized by treatment and time. Descriptive statistics included geometric mean and 95% CI. For geometric means of change from baseline, a ratio to baseline was used to determine percentage change by first calculating in the log domain and then back transforming using exponentiation.
(§4) Baseline corresponds to the value at day 1 pre-dose. For change from baseline, geometric mean and its CI are calculated for the value (post) to baseline ratio.

endothelin-1 = test: Plasma biomarker endothelin-1; details: for Endothelin-1, geo-mean (95% CI): plasma
Procedure: as §2, §3, §4

[3] = Serum serelaxin pharmacokinetics (ELISA, non-compartmental)
Procedure: Blood samples (approximately 2 mL) for pharmacokinetic (PK) evaluation were collected at 0 (pre-dose), 24, 48, 50, and 54 h, and Day 30. Serum serelaxin concentration was determined by an enzyme-linked immunosorbent assay, developed and validated based upon a commercially available kit (Quantikine ELISA kit, R&D systems, MN, USA).[29] The PK parameters were calculated using non-compartmental methods that included steady-state concentration (Css) and systemic clearance (CL). Css was estimated using the serum concentration determined at 48 h, while CL was estimated using the rate of infusion and Css for each patient.

[4] = 48 h, n=28, listed as serelaxin

Serelaxin
AIx, absolute value ([1]; 0 h (pre-dose baseline), n=25): 25.81 ± 7.70 (25) %
AIx, adjusted mean difference serelaxin versus placebo ([1]; 2 h): -2.12%
AIx, change from baseline (adjusted mean) ([1]; 2 h, n=23): -4.09%
AIx, absolute value ([1]; 2 h post-dose, n=23): 22.17 ± 10.09 (23) %
AIx, adjusted mean difference serelaxin versus placebo ([1]; 6 h): -2.88%
AIx, change from baseline (adjusted mean) ([1]; 6 h, n=24): -3.28%
AIx, absolute value ([1]; 6 h post-dose, n=24): 22.96 ± 6.95 (24) %
AIx, adjusted mean difference serelaxin versus placebo ([1]; 24 h): –0.84%
AIx, change from baseline (adjusted mean) ([1]; 24 h, n=24): -0.77%
AIx, absolute value ([1]; 24 h post-dose, n=24): 25.08 ± 8.10 (24) %
AIx, adjusted mean difference serelaxin versus placebo ([1]; 47 h): 3.45%
AIx, change from baseline (adjusted mean) ([1]; 47 h, n=23): 3.49%
AIx, absolute value ([1]; 47 h post-dose, n=23): 29.57 ± 9.75 (23) %
AIx, adjusted mean difference serelaxin versus placebo ([1]; 50 h): 3.25%
AIx, change from baseline (adjusted mean) ([1]; 50 h, n=22): -0.76%
AIx, absolute value ([1]; 50 h post-dose, n=22): 24.89 ± 12.50 (22) %
AIx, adjusted mean difference serelaxin versus placebo ([1]; 54 h): -0.98%
AIx, change from baseline (adjusted mean) ([1]; 54 h, n=22): -1.74%
AIx, absolute value ([1]; 54 h post-dose, n=22): 24.70 ± 10.62 (22) %
AIx, absolute value ([1]; Day 30, n=25): 24.98 ± 9.05 (25) %
AIx, adjusted mean difference serelaxin versus placebo ([1]; Day 30): -1.76%
AIx, change from baseline (adjusted mean) ([1]; Day 30, n=25): -0.98%
AIx, absolute value ([1]; Day 180, n=24): 26.15 ± 8.97 (24) %
AIx, adjusted mean difference serelaxin versus placebo ([1]; Day 180): -0.05%
AIx, adjusted mean difference serelaxin versus placebo ([1]; Day 180, listed as serelaxin): −0.05%
AIx, change from baseline (adjusted mean) ([1]; Day 180, n=24): 0.23%
PWV, absolute value ([2]; 0 h (pre-dose baseline), n=22): 7.45 ± 2.05 (22) meters/second
PWV, adjusted mean difference serelaxin versus placebo ([2]; 24 h): -0.157 meters/second
PWV, adjusted mean difference serelaxin versus placebo ([2]; 24 h, listed as serelaxin): −0.16 meters/second
PWV, change from baseline (adjusted mean) ([2]; 24 h, n=19): -0.54 meters/second
PWV, absolute value ([2]; 24 h post-dose, n=19): 7.05 ± 1.88 (19) meters/second
PWV, adjusted mean difference serelaxin versus placebo ([2]; 47 h): -0.34 meters/second
PWV, change from baseline (adjusted mean) ([2]; 47 h, n=21): -0.26 meters/second
PWV, absolute value ([2]; 47 h post-dose, n=22): 7.20 ± 1.92 (22) meters/second
PWV, absolute value ([2]; Day 30, n=23): 7.99 ± 1.82 (23) meters/second
PWV, adjusted mean difference serelaxin versus placebo ([2]; Day 30): -0.06 meters/second
PWV, adjusted mean difference serelaxin versus placebo ([2]; Day 30, listed as serelaxin): −0.06 meters/second
PWV, change from baseline (adjusted mean) ([2]; Day 30, n=20): 0.35 meters/second
PWV, absolute value ([2]; Day 180, n=23): 8.34 ± 2.11 (23) meters/second
PWV, adjusted mean difference serelaxin versus placebo ([2]; Day 180): 0.12 meters/second
PWV, change from baseline (adjusted mean) ([2]; Day 180, n=20): 0.93 meters/second
Cystatin C change from baseline, geometric mean ratio to baseline (95% CI) (cystatin C; 24 h, n=27): 0.92 (0.89, 0.94)
Cystatin C change from baseline, geometric mean ratio to baseline (95% CI) (cystatin C; 48 h, n=28): 0.93 (0.91, 0.96)
Cystatin C change from baseline, geometric mean ratio to baseline (95% CI) (cystatin C; [4]): 0.93
Cystatin C change from baseline, geometric mean ratio to baseline (95% CI) (cystatin C; 54 h, n=27): 0.87 (0.80, 0.94)
Cystatin C change from baseline, geometric mean ratio to baseline (95% CI) (cystatin C; 54 h, n=27, listed as serelaxin): 0.87
Cystatin C change from baseline, geometric mean ratio to baseline (95% CI) (cystatin C; Day 30, n=29): 0.97 (0.93, 1.00)
Cystatin C change from baseline, geometric mean ratio to baseline (95% CI) (cystatin C; Day 180, n=29): 0.98 (0.89, 1.07)
Cystatin C, geo-mean (95% CI) (cystatin C; 0 h (pre-dose baseline), n=29): 0.931 (0.876, 0.990) mg/L
Cystatin C, geo-mean (95% CI) (cystatin C; 0 h (pre-dose baseline), n=29, listed as serelaxin): 0.93 mg/L
Cystatin C, geo-mean (95% CI) (cystatin C; 24 h, n=27): 0.839 (0.788, 0.893) mg/L
Cystatin C, geo-mean (95% CI) (cystatin C; 48 h, n=28): 0.867 (0.812, 0.926) mg/L
Cystatin C, geo-mean (95% CI) (cystatin C; 54 h, n=27): 0.796 (0.721, 0.878) mg/L
Cystatin C, geo-mean (95% CI) (cystatin C; Day 30, n=29): 0.899 (0.842, 0.960) mg/L
Cystatin C, geo-mean (95% CI) (cystatin C; Day 180, n=29): 0.908 (0.821, 1.004) mg/L
Endothelin-1 change from baseline, geometric mean ratio to baseline (95% CI) (endothelin-1; 24 h, n=27): 0.82 (0.68, 0.99)
Endothelin-1 change from baseline, geometric mean ratio to baseline (95% CI) (endothelin-1; 48 h, n=28): 0.82 (0.70, 0.96)
Endothelin-1 change from baseline, geometric mean ratio to baseline (95% CI) (endothelin-1; [4]): 0.82
Endothelin-1 change from baseline, geometric mean ratio to baseline (95% CI) (endothelin-1; 54 h, n=26): 0.84 (0.73, 0.96)
Endothelin-1 change from baseline, geometric mean ratio to baseline (95% CI) (endothelin-1; Day 30, n=29): 0.93 (0.77, 1.13)
Endothelin-1 change from baseline, geometric mean ratio to baseline (95% CI) (endothelin-1; Day 180, n=29): 0.88 (0.69, 1.12)
Endothelin-1, geo-mean (95% CI) (endothelin-1; 0 h (pre-dose baseline), n=29): 0.874 (0.630, 1.212) pmol/L
Endothelin-1, geo-mean (95% CI) (endothelin-1; 24 h, n=27): 0.6732 (0.4626, 0.9796) pmol/L
Endothelin-1, geo-mean (95% CI) (endothelin-1; 48 h, n=28): 0.6835 (0.4647, 1.0054) pmol/L
Endothelin-1, geo-mean (95% CI) (endothelin-1; 54 h, n=26): 0.7535 (0.5098, 1.1138) pmol/L
Endothelin-1, geo-mean (95% CI) (endothelin-1; Day 30, n=29): 0.8145 (0.5881, 1.1279) pmol/L
Endothelin-1, geo-mean (95% CI) (endothelin-1; Day 180, n=29): 0.7664 (0.5436, 1.0806) pmol/L
Systemic clearance (CL), geometric mean ([3]; estimated from rate of infusion and Css, 48 h IV infusion 30 µg/kg/day): 1.38 mL/min/kg
Steady-state serum concentration (Css), geometric mean ([3]; serum concentration at 48 h of 48 h IV infusion 30 µg/kg/day, ELISA, non-compartmental): 15.1 ng/mL
